This is an account of results in patent publication US20060223747A1, “Therapeutic agent for soft tissue sarcoma” (Fujisawa Pharmaceutical Co. Ltd., priority 2003, published 2006).

In assay [1] the test system is SYO-1 synovial sarcoma cell strain (SYT-SSX protein expressing). As to the kind of experiment: Tumor volume after subcutaneous implantation of SYO-1 cells in nude mice. The assay is classed as in vivo, BALB/C/nu/nu nude mice. The settings on record: for antitumor activity in vivo against SYT-SSX protein expressing cells: summary statement. The procedure:
Inbred male (BALB/C/nu/nu) nude mice were supplied by Charles River Japan, Inc. The animals were all fed and handled according to the Animal Test Guideline, Animal Resources Division, Advanced Science Research Center, Okayama University. FK228 was administered after 10 days from subcutaneous implantation of 10^5 cells each of the SYO-1 cell strain. The tumor volume was assumed by measuring two diameters perpendicular to each other using calipers and from the following formula (tumor volume=⅙π [(d1×d2)^3/2] (wherein d1 and d2 are two perpendicular diameters)). The dose was evaluated by intravenously administering a dilute FK228 solution (50 μl, 10% HCO60 which is polyoxyethylene (60) hydrogenated castor oil, diluted with physiological saline) at 0 mg/kg, 1.6 mg/kg or 3.2 mg/kg to 20 animals, and as a control, a 3.2 mg/kg dilute FK228 solution was intravenously injected to 7 animals free of tumor implantation. The administration was performed 3 times every 4 days, the tumor volume was also measured every 4 days, as well as after completion of the administration.

The test system of assay [2] is HTB93 synovial sarcoma cell strain (SW982; not expressing SYT-SSX protein). The assay can be described thus: MTT cell growth assay (survival rate), HTB93 synovial sarcoma cell strain. It is filed as cell-based. The settings on record: for antitumor activity against synovial sarcoma cell strain not expressing SYT-SSX protein: summary statement, HTB93 (SW982). Here is the method: An SYT-SSX protein non-expressing synovial sarcoma cell line HTB93 (purchased from ATCC: American Type Culture Collection) was cultured in DMEM (Dulbecco's modified Eagle's medium) containing 10% (v/v) fetal bovine serum (FBS), 100 U/ml penicillin and 100 μg/ml streptomycin at 37° C. under 5% CO2 environment. These cells were plated and cultured for 24 hr, detached with 0.25% (w/v) trypsin and recovered. For cell growth ability, an MTT analysis kit (Colorimetric MTT) assay for cell survival and proliferation kit of CHEMICON International, Inc.) was used. Each cell strain was plated in a 96 well microtiter plate at 2×10^3 cell/well, and after culture for 24 hr, exposed to a 0.1% (v/v) dilute ethanol solution of FK228 at a concentration distribution of 0.001 nM, 0.01 nM, 0.1 nM, 0.5 nM, 1 nM, 5 nM, 10 nM, 50 nM and 100 nM, 0.1% (v/v) ethanol as a control and the medium alone as a blank. After exposure for 24 hr, 48 hr, 72 hr and 96 hr, each culture was passed through a 570 nm filter and the absorbance was measured. All were performed with n=4.
For the results, average values of the FK228 addition sample, control and blank were taken, and using numerical values obtained by subtracting a blank value from the value of the FK228 addition sample or control, a percentage corresponding to the ratio of the numerical value of the FK228 addition sample relative to that of the control was taken as survival rate (%).
On the technique in general: Tetrazolium dyes change colour on reduction, which living cells bring about.

Assay [3] relates to SYT-SSX protein expressing cells (HS-SY-2, YaFuSS, SYO-1). The assay can be described thus: In vitro antitumor activity against SYT-SSX protein expressing cells (summary statement). The assay is classed as cell-based. The text has this: In an attempt to solve the above-mentioned problems, the present inventors have considered that, in synovial sarcoma, formation of the aforementioned complex of SYT-SSX protein, a chromatin remodeling-associated protein and histone deacetylase (HDAC)-associated protein enhances histone deacetylase activity, which in turn has an effect on the canceration, development and/or proliferation, of synovial sarcoma, and have conducted intensive studies of the effect of histone deacetylase inhibition on various synovial sarcoma cell strains (HS-SY-2, YaFuSS, SYO-1) that express SYT-SSX protein. […]

For another assay, the system named is histone deacetylase. The settings on record: reported in JP-B-7-64872; Experimental Cell Research (1998) 241, 126-133; cited from earlier work.
The subject of assay [4] is YaFuSS synovial sarcoma cell strain (SYT-SSX protein expressing). The assay can be described thus: MTT cell growth assay, YaFuSS synovial sarcoma cell strain. The assay is classed as cell-based. The settings on record: YaFuSS cells; FK228 0.1-100 nM; exposure 24, 48, 96 hr; FIG. 2. An excerpt: (§1) An SYT-SSX protein expressing synovial sarcoma cell line HS-SY-2 (established and kindly provided by Dr. Hiroshi Sonobe, Department of Pathology, National Fukuyama Hospital), YaFuSS (established and kindly provided by Dr. Junya Toguchida, Department of Tissue Regeneration, Institute for Frontier Medical Sciences, Kyoto University) and SYO-1 (established and kindly provided by Dr. Akira Kawai, Department of Orthopedics, Faculty of Medicine, Okayama University (now Department of Orthopedics, National Cancer Center)) were cultured in DMEM (Dulbecco's modified Eagle's medium) containing 10% (v/v) fetal bovine serum (FBS), 100 U/ml penicillin and 100 μg/ml streptomycin at 37° C. under 5% CO2 environment. These cells were plated and cultured for 24 hr, detached with 0.25% (w/v) trypsin and recovered. For cell growth ability, an MTT analysis kit (Colorimetric (MTT) assay for cell survival and proliferation kit of CHEMICON International, Inc.) was used. Each cell strain was plated in a 96 well microtiter plate at 10^3 cell/well, and after culture for 24 hr, exposed to a 0.1% (v/v) dilute ethanol solution of FK228 at a concentration distribution of 0.1 nM, 0.2 nM, 1 nM, 50 nM and 100 nM, and 0.1% (v/v) ethanol (Et-OH 0.1% in FIG. 1) as a control. After exposure for 24 hr, 48 hr and 96 hr, each culture was passed through a 570 nm filter and the absorbance was measured. […]

Assay [5] concerns HS-SY-2 synovial sarcoma cell strain (SYT-SSX protein expressing). As to the kind of experiment: MTT cell growth assay, HS-SY-2 synovial sarcoma cell strain. It is filed as cell-based. The settings on record: HS-SY-2 cells; FK228 0.1-100 nM; exposure 24, 48, 96 hr; FIG. 1.
Text: as §1

The test system of assay [6] is SYO-1 synovial sarcoma cell strain (SYT-SSX protein expressing). The assay can be described thus: MTT cell growth assay, SYO-1 synovial sarcoma cell strain. The assay is classed as cell-based. The settings on record: SYO-1 cells; FK228 0.1-100 nM; exposure 24, 48, 96 hr; FIG. 3.
Text: as §1

Turning to `CC(/C=C/C(=O)NO)=C\[C@@H](C)C(=O)c1ccc(N(C)C)cc1` [tricostatin A, Trichostatin A, reference compound], the “antitumor activity in vivo against SYT-SSX protein expressing cells” value in assay [1] is “potent antiturnor activity”. In addition, in assay [2], the “antitumor activity against synovial sarcoma cell strain not expressing SYT-SSX protein” value is “potent antitumor activity”. Moreover, the “antitumor activity in vitro against SYT-SSX protein expressing cells” value in assay [3] was “potent antiturnor activity”.

For the molecule `C/C=C1\NC(=O)C2CSSCC/C=C/C(CCNC(C(C)C)C(=O)N2)OC(=O)C(C(C)C)NC1=O` (stereo not shown) [compound A], in the assay on histone deacetylase, the histone deacetylase inhibition entry is listed as “selectively inhibits histone deacetylase”.

With `C/C=C1\NC(=O)[C@H]2CSSCC/C=C/[C@H](CC(=O)N[C@H](C(C)C)C(=O)N2)OC(=O)[C@H](C(C)C)NC1=O` [FK228], the “in vitro antitumor effect” value in assay [4], in assay [5] and in assay [6] was “showed an in vitro antitumor effect” in each case. Further, the “in vivo antitumor effect (tumor volume)” value in assay [1] (SYO-1 subcutaneous implant, i.v. 1.6 or 3.2 mg/kg, 3 times every 4 days, FIG. 4) is on record as “showed an in vivo antitumor effect”. Moreover, the “antitumor activity in vivo against SYT-SSX protein expressing cells” value in assay [1] is “potent antiturnor activity”. In assay [2] (HTB93 cells, FK228 0.001-100 nM, exposure 24, 48, 72, 96 hr, FIG. 5), the “in vitro antitumor effect (survival rate)” value is “showed an in vitro antitumor effect”. Moreover, the “antitumor activity against synovial sarcoma cell strain not expressing SYT-SSX protein” value in assay [2] is “potent antitumor activity”. The histone deacetylase inhibition entry with histone deacetylase is recorded as “selectively inhibits histone deacetylase”. Also, the “antitumor activity in vitro against SYT-SSX protein expressing cells” value in assay [3] is on record as “potent antiturnor activity”.
